Legend:
Ptpn11_N SH2 domain [1] = target: T1, Ptpn11_N SH2 domain (Homo sapiens, UniProt Q06124); assay: Fluorescence polarization solution binding; settings: Rhodamine B-labeled peptide, GST-SH2, Beacon 2000, read-out: Affinity (KD)
T1 sequence (Q06124 6-102 limits assumed): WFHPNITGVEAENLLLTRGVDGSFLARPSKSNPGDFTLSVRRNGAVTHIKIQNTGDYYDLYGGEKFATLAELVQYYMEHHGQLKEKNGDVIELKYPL
Description: To verify the binding results obtained from addressable peptide arrays we employed an orthogonal method of determining SH2 interactions with peptide ligands. We measured the dissociation constants of 60 binary SH2-peptide pairs in solution by fluorescence polarization (Table 2, Additional file 2: Figures S3A-C).
Peptides were synthesized using FMOC-chemistry onto pre-loaded tenta-gel resins. Peptides were then labeled with Rhodamine B (Abbey Color) and then cleaved using trifluoroacetic acid. Peptides were lyophilized and then purified using a LC/MS (Agilent 2100). Dissociation constants were measured using the Beacon 2000 (Invitrogen) as previously described.
Binding Affinities determined by Fluorescence Polarization. Rhodamine B-labeled peptides were mixed with varying concentrations of GST-tagged SH2 domains. Fluorescence polarization measurements were read on a Beacon 2000 (Invitrogen). The curves were fit to a Michaelis-Menten equation to calculate the dissociation constant, KD. […] (C) Affinity measurements that fell below the 2X mean intensity and were considered array negative on the SPOT array.

Crk SH2 domain = Crk SH2 domain (Homo sapiens, UniProt P46108); parameters: method as in earlier work; settings: SH2 protein microarray; N.B. = non binding; read-out: Protein Microarray (Macbeath) – KD; cited from earlier work
Chain of Crk SH2 domain (P46108 13-118 limits assumed): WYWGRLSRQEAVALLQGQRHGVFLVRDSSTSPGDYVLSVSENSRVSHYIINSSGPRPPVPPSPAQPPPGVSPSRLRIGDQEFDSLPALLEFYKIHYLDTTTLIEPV

Ptpn11_N SH2 domain [2] = target: T1, Ptpn11_N SH2 domain; parameters: method as in 5 sources, one per row (each row's own in cited_ref): ref [107] = [107]; PMID 8144631; Case RD Piccione E Wolf G Benett AM Lechleider RJ Neel BG Shoelson SE SH-PTP2/Syp SH2 domain binding specificity is defined by direct interactions with platelet-derived growth factor beta-receptor, ep ||| ref [107, 108] = [107]; PMID 8144631; Case RD Piccione E Wolf G Benett AM Lechleider RJ Neel BG Shoelson SE SH-PTP2/Syp SH2 domain binding specificity is defined by direct interactions with platelet-derived growth factor beta-receptor, ep || [108]; PMID 7504175; doi:10.1128/mcb.13.12.7418-7428.1993; Sun XJ Crimmins DL Myers MG Jr Miralpeix M White MF Pleiotropic insulin signals are engaged by multisite phosphorylation of IRS-1 Mol Cell Biol 1993 13 7418 7428 7504175 10.1128/mcb.13.12.7418-7428.19 ||| ref [95, 108, 110] = [95]; PMID 9422724; doi:10.1074/jbc.273.2.729; Ottinger EA Botfield MC Shoelson SE Tandem SH2 domains confer high specificity in tyrosine kinase signaling J Biol Chem 1998 273 729 735 9422724 10.1074/jbc.273.2.729 || [108]; PMID 7504175; doi:10.1128/mcb.13.12.7418-7428.1993; Sun XJ Crimmins DL Myers MG Jr Miralpeix M White MF Pleiotropic insulin signals are engaged by multisite phosphorylation of IRS-1 Mol Cell Biol 1993 13 7418 7428 7504175 10.1128/mcb.13.12.7418-7428.19 || [110]; PMID 9756938; doi:10.1074/jbc.273.41.26908; Myers MG Jr Mendez R Shi P Pierce JH Rhoads R White MF The COOH-terminal tyrosine phosphorylation sites on IRS-1 bind SHP-2 and negatively regulate insulin signaling J Biol Chem 1998 273 26908 26914 9 ||| ref 107 (IRS-1 Y896 also 108) ||| ref 95, 108, 110 = [95]; PMID 9422724; doi:10.1074/jbc.273.2.729; Ottinger EA Botfield MC Shoelson SE Tandem SH2 domains confer high specificity in tyrosine kinase signaling J Biol Chem 1998 273 729 735 9422724 10.1074/jbc.273.2.729 || [108]; PMID 7504175; doi:10.1128/mcb.13.12.7418-7428.1993; Sun XJ Crimmins DL Myers MG Jr Miralpeix M White MF Pleiotropic insulin signals are engaged by multisite phosphorylation of IRS-1 Mol Cell Biol 1993 13 7418 7428 7504175 10.1128/mcb.13.12.7418-7428.19 || [110]; PMID 9756938; doi:10.1074/jbc.273.41.26908; Myers MG Jr Mendez R Shi P Pierce JH Rhoads R White MF The COOH-terminal tyrosine phosphorylation sites on IRS-1 bind SHP-2 and negatively regulate insulin signaling J Biol Chem 1998 273 26908 26914 9; settings: ref 107 (IRS-1 Y896 also 108); read-out: Relative affinity (IC50); cited from earlier work
Ptpn11_C SH2 domain = assay: SPOT peptide array; type: binding; settings: GST-SH2 0.25 μM
Description: (§1) The use of addressable peptide arrays is a reproducible and semi-quantitative approach that has been extensively validated for studying protein interactions with peptide ligands. To investigate connections between SH2 domain proteins and their putative phosphorylated docking sites on cell surface receptors, we developed addressable arrays consisting of 192 phosphotyrosine peptides. This peptide set was assembled using 71 phosphotyrosine peptide motifs corresponding to all of the cytoplasmic tyrosine residues within the FGF receptors (FGFR1-4), insulin receptor (InsR) and IGF-1 receptor (IGF-1R) (Figure 1A). Activation of these receptors results in the phosphorylation of associated scaffold proteins, and so 75 phosphotyrosine peptides corresponding to a comprehensive list of tyrosine residues within insulin receptor substrates (IRS-1 and IRS-2) and fibroblast receptor substrates (FRS-2 and FRS-3) were included. In addition, 33 phosphotyrosine peptides were incorporated from the downstream signaling proteins PLC-γ1, p130Cas (BCAR1) and p62DOK1. […] These control peptides provide a reference and establish the empirical cut-off for designated binding interactions (Table 1). No discrimination was made against peptides on the basis of reported phosphorylation state in order to examine a diverse and unbiased set of motifs. The resulting set of 192 phosphotyrosine peptides and their corresponding position in the proteins of origin is noted in Additional file 1: Table S1. Addressable arrays were synthesized as membrane-bound 11-mer peptides using the SPOT synthesis technique. While the majority of SH2 domains recognize residues C-terminal to the phosphotyrosine in their cognate peptide ligands, additional contacts between SH2 domains and residues N-terminal to the phosphotyrosine are observed for the SH2 domain of Sh2d1a (SAP) and cannot be ruled out in other cases. Peptides were synthesized with six flanking residues C-terminal to the phosphotyrosine and four residues N-terminal to the phosphotyrosine.
(§2) SH2 domains were arrayed as GST fusion proteins and detected using anti-GST primary antibodies and near-infrared labeled secondary antibodies. In an effort to present a dataset with minimal false positives, we chose an empirical cutoff based on the array average across all peptide spots to classify interactions (Figure 1A). In cases where the intensity of the signal for an individual SH2-domain binding event exceeded the mean intensity of all the peptides on the membrane by three-fold were scored as “array positives” [22]. Non-binding was judged in cases where the intensity of a spot was less than the mean intensity of all spots on the membrane and these were scored as “array negatives”. Peptides with signal intensities between 1X and 3X mean were scored as “indeterminate” and ascribed as neither array positive binding interactions nor array-negative non-binders. […] This signature may be indicative of promiscuity differences between phosphopeptides or there may be a subset of peptides which interact in a nonspecific fashion with either the GST fusion tag or one of the antibodies used for detection, resulting in false positives. Consistent with our goal of reducing the errors associated with identifying false-positives, we probed three separate arrays with three separate preps of the GST fusion tag alone. Potentially non-specificly interacting peptides (so-called ‘sticky’ peptides) were identified as any that bound to GST with above mean intensity in two out of three separate trials. This approach identifies any peptides which interact with GST or either of the recognition antibodies, a known confounding factor for downstream analysis. This conservative approach allows us to score many significant peptides as ‘binders’ which may have been indeterminate before when incorporating the ‘sticky’ peptides into the array average. […]

Fyn SH2 domain = assay: SPOT peptide array; type: binding; settings: GST-SH2 0.25 μM
Description: as §1, §2

Ptpn11_N SH2 domain [3] = target: T1, Ptpn11_N SH2 domain; assay: SPOT peptide array; type: binding; settings: GST-SH2 0.25 μM
Description: as §1, §2

PI3K1_N SH2 domain [4] = target: T2, PI3K1_N SH2 domain (Homo sapiens, UniProt P27986); parameters: method as in PMID 8384875; settings: cited from earlier work
T2 sequence (P27986 333-428 limits assumed): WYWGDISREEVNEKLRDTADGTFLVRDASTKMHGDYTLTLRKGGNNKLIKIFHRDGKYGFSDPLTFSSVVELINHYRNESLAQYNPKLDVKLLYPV

PI3K1_N SH2 domain [5] = target: T2, PI3K1_N SH2 domain; assay: SPOT peptide array; type: binding; settings: GST-SH2 0.25 μM, membrane-bound peptide, 1 mM DTT, LiCor read-out
Description: as §1, §2

[6] = tested on: Plcγ SH2 domain (N or C not specified); assay: SPOT peptide array; type: binding; settings: GST-SH2 0.25 μM, membrane-bound peptide, 1 mM DTT, LiCor read-out
Description: as §1, §2

Plcγ-C SH2 domain = assay: SPOT peptide array; type: binding; settings: spot intensity as factor of array mean; GST-SH2 0.25 μM
Description: as §1, §2

Shb SH2 domain = Shb SH2 domain (Homo sapiens, UniProt Q15464); assay: SPOT peptide array; type: binding; settings: GST-SH2 0.25 μM
Chain of Shb SH2 domain (Q15464 410-504 limits assumed): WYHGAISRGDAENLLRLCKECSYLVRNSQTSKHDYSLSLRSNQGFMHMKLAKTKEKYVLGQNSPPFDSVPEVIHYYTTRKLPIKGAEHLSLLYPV
Description: as §1, §2

Plcγ-N SH2 domain = assay: SPOT peptide array; type: binding; settings: spot intensity as factor of array mean; GST-SH2 0.25 μM
Description: as §1, §2

CrkL SH2 domain = CrkL SH2 domain (Homo sapiens, UniProt P46109); parameters: method as in earlier work; settings: SH2 protein microarray; N.B. = non binding; read-out: Protein Microarray (Macbeath) – KD; cited from earlier work
Chain of CrkL SH2 domain (P46109 14-102 limits assumed): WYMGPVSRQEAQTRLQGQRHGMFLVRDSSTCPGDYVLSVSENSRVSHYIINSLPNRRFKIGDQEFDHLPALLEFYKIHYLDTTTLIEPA

Abl2 SH2 domain = target: T3, Abl2 SH2 domain (Homo sapiens, UniProt P42684); parameters: method as in earlier work; settings: SH2 protein microarray; N.B. = non binding; read-out: Protein Microarray (Macbeath) – KD; cited from earlier work
T3 sequence (P42684 173-263 limits assumed): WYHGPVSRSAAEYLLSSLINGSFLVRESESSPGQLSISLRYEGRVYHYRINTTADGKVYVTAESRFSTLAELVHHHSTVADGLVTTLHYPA

panel of 50 SH2 domains = assay: SPOT peptide array probed with each of 50 GST-SH2 domains; type: binding; settings: SH2 domains with intensity >3X array mean; GST-SH2 0.25 μM, 1 mM DTT
Method in brief: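 Each GST-fused SH2 domain was overlaid on 192 membrane-synthesized pTyr peptides (11-mers, 4 N-terminal and 6 C-terminal flanking residues) and read with anti-GST and near-infrared secondary antibodies. Binding called relative to membrane mean intensity (>3× positive, <1× negative); GST-only probes defined nonspecific peptides.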

[7] = membrane-bound peptide, 1 mM DTT, LiCor read-out
[8] = spot intensity as factor of array mean

CC(C)[C@H](NC(=O)[C@H](CC(=O)O)NC(=O)[C@H](CCC(=O)O)NC(=O)[C@H](C)N)C(=O)N[C@@H](Cc1ccc(OP(=O)(O)O)cc1)C(=O)N[C@@H](CC(=O)O)C(=O)N[C@H](C(=O)N1CCC[C@H]1C(=O)N1CCC[C@H]1C(=O)N1CCC[C@H]1C(=O)N[C@@H](C)C(=O)O)C(C)C [AEDVpYDVPPPA]
Kd (Ptpn11_N SH2 domain [1]): > 50 µM

ARDIHHIDYpYKKTTNGRD (ARDIHHIDYYKKTTNGRD)
Kd (Crk SH2 domain): 1.11 µM

DLSApYASISFQ (DLSAYASISFQ) [11-mer phosphotyrosine peptide, IRS-1 (Y1229)]
IC50 (Ptpn11_N SH2 domain [2]): 25 ± 4.2 µM

DLSApYASISFQ [11-mer phosphotyrosine peptide, IRS-1 (Y1229)]
Array positive (Ptpn11_C SH2 domain; [7]): No (Peptide spots with average intensity values between 1X-3X the array mean were defined as ‘indeterminate’. Those with intensities below 1X mean were defined as array negative) | Peptide array intensity (X mean) (Ptpn11_C SH2 domain; [8]): 1.59 X Mean | Array positive (Fyn SH2 domain; [7]): No (Peptide spots with average intensity values between 1X-3X the array mean were defined as ‘indeterminate’. Those with intensities below 1X mean were defined as array negative) | Peptide array intensity (X mean) (Fyn SH2 domain; [8]): 0.48 X Mean | Array positive (Ptpn11_N SH2 domain [3]; [7]): No (Peptide spots with average intensity values between 1X-3X the array mean were defined as ‘indeterminate’. Those with intensities below 1X mean were defined as array negative) | Peptide array intensity (X mean) (Ptpn11_N SH2 domain [3]; [8]): 2.78 X Mean

DPNGpYMMMSPS (DPNGYMMMSPS) [11-mer phosphotyrosine peptide, IRS-1 (Y662)]
IC50 (Ptpn11_N SH2 domain [2]): 96 ± 13 µM

ELSNpYICMGGK (ELSNYICMGGK) [11-mer phosphotyrosine peptide, IRS-1 (Y465)]
IC50 (Ptpn11_N SH2 domain [2]): 48 ± 16 µM

GSGDpYMPMSPK [11-mer phosphotyrosine peptide, printed as IRS-1 (Y612); footnote says Y632]
Relative affinity (ID50) (PI3K1_N SH2 domain [4]): ID50 = 0.7-1.1 μM | Array positive (PI3K1_N SH2 domain [5]): No (Peptide spots with average intensity values between 1X-3X the array mean were defined as ‘indeterminate’. Those with intensities below 1X mean were defined as array negative)

SIEEpYTEMMPA (SIEEYTEMMPA) [11-mer phosphotyrosine peptide, IRS-1 (Y551)]
IC50 (Ptpn11_N SH2 domain [2]): 11 ± 1 µM

SNQEpYLDLSMP [11-mer phosphotyrosine peptide, FGFR1 (Y766)]
Array positive [6]: No (Peptide spots with average intensity values between 1X-3X the array mean were defined as ‘indeterminate’. Those with intensities below 1X mean were defined as array negative) | Peptide array intensity (X mean) (Plcγ-C SH2 domain): 0.21 X Mean | Array positive (Shb SH2 domain; [7]): No (Peptide spots with average intensity values between 1X-3X the array mean were defined as ‘indeterminate’. Those with intensities below 1X mean were defined as array negative) | Peptide array intensity (X mean) (Shb SH2 domain; [8]): 0.45 X Mean | Peptide array intensity (X mean) (Plcγ-N SH2 domain): 0.52 X Mean

SSKDLVSCApYQVARGMED (SSKDLVSCAYQVARGMED)
Kd (CrkL SH2 domain): 0.24 µM | Kd (Crk SH2 domain): 0.26 µM | Kd (Abl2 SH2 domain): 0.012 µM

VSEEYLDLRLT [11-mer peptide, FGFR4 (754)]
Other SH2 domains bound (additional array-positive SH2 domains) (panel of 50 SH2 domains): SHD | Array positive [6]: No (Peptide spots with average intensity values between 1X-3X the array mean were defined as ‘indeterminate’. Those with intensities below 1X mean were defined as array negative)

From PMC3514216, “SRC Homology 2 Domain Binding Sites in Insulin, IGF-1 and FGF receptor mediated signaling networks reveal an extensive potential interactome” (Cell Communication and Signaling : CCS, 2012)
